Where two headings read alike, the source gives them in different places.
Key:
[1] = molecular target: hCB2R (Homo sapiens, UniProt P34972); assay: cell-based; type: cell-based
[2] = molecular target: T1, hCB1R (Homo sapiens, UniProt P21554); assay: cell-based; type: cell-based
T1 construct: host or cells: CHO

[3] = molecular target: T2, human NAPE-PLD (Homo sapiens, UniProt Q6IQ20); assay: NAPE-PLD inhibition; type: biochemical; conditions: 10 µM
T2 construct: Full length human cDNA NAPE-PLD was obtained from Natsuo Ueda; expressed in transfected cells; host or cells: HEK293T (transient), membrane fraction
T2 sequence (Q6IQ20 whole entry): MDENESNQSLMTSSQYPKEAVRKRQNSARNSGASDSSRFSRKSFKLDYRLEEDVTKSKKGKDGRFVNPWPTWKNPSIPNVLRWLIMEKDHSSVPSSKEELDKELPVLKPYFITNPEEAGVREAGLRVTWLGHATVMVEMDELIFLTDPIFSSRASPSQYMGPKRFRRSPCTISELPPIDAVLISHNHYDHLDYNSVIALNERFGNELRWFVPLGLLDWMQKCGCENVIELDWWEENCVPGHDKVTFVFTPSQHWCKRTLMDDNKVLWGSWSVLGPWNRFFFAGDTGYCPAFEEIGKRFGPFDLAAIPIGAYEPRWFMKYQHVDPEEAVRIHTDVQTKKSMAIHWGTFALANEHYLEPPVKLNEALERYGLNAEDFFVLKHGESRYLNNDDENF
Method in brief: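 Membrane fraction from HEK293T cells transiently expressing Flag-tagged full-length human NAPE-PLD, 0.04 mg ml^−1 final, preincubated with compound 30 min at 37 °C in 50 mM Tris-HCl pH 7.5, 0.02% Triton X-100, 150 mM NaCl. Fluorogenic substrate at 1 μM final; fluorescence (ex 485/em 535 nm) read every 2 min for 1 h at 37 °C, background-subtracted.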

[4] = system: AEA reuptake in HaCaT cells; assay: cells; type: cell-based, human; conditions: for AEA reuptake Efficacy (% inhibition) HaCaT cells: from dose-response; for IC50: read-out: AEA reuptake IC50 (95% CI) HaCaT cells
[5] = molecular target: T3, GR (h) (Homo sapiens, UniProt P04150); assay: CEREP panel; type: binding; conditions: 10 µM
T3 construct: CEREP (contract assay)
T3 sequence (P04150 1-777): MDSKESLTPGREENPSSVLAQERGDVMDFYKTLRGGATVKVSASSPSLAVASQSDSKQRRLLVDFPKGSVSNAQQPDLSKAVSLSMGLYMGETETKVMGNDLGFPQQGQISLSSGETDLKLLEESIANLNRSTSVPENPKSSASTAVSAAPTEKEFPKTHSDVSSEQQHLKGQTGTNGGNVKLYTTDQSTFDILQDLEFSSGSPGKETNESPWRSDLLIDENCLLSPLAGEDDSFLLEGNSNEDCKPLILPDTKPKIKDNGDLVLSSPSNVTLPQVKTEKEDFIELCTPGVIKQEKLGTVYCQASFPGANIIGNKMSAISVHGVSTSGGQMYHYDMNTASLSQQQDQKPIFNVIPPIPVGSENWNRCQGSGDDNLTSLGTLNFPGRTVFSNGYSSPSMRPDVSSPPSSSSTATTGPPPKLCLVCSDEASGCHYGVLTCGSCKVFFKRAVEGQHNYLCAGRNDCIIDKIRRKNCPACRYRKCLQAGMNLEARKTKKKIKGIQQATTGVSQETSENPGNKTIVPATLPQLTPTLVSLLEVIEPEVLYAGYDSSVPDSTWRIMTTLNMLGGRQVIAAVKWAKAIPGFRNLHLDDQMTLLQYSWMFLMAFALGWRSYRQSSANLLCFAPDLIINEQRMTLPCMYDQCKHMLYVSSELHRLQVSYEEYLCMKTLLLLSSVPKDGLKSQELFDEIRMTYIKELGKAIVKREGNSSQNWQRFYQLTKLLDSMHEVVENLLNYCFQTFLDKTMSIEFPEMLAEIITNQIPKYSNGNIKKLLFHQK

[6] = molecular target: T4, N muscle-type (h) (Homo sapiens, UniProt P02708+P07510+P11230+Q07001); assay: CEREP panel; type: binding; conditions: 10 µM
T4 construct: CEREP (contract assay)
T4 sequence (P02708 21-457): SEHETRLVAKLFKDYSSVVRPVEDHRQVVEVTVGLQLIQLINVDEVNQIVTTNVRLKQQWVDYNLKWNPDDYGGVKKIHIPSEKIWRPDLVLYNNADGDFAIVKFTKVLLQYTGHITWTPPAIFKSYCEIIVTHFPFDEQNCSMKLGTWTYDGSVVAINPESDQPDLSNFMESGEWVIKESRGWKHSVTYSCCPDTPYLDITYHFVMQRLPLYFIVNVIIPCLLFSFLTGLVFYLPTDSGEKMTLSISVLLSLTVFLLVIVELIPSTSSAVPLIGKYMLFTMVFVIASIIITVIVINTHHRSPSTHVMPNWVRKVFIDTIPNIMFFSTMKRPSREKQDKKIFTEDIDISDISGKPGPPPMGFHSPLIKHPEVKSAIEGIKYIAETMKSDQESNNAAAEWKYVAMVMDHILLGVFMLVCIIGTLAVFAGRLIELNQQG
T4 sequence (P11230 24-501): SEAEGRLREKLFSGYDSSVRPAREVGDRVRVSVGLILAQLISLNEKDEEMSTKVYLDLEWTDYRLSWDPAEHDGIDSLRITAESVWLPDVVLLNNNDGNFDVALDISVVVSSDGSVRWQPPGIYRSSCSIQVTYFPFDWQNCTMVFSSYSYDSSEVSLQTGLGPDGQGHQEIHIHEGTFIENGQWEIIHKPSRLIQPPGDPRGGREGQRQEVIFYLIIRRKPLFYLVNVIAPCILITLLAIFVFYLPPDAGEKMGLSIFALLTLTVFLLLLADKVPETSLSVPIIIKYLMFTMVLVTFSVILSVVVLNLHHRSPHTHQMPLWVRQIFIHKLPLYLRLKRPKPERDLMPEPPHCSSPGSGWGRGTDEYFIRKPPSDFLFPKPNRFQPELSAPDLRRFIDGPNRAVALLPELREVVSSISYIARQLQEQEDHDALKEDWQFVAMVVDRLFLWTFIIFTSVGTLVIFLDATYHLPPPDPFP
T4 sequence (Q07001 22-517): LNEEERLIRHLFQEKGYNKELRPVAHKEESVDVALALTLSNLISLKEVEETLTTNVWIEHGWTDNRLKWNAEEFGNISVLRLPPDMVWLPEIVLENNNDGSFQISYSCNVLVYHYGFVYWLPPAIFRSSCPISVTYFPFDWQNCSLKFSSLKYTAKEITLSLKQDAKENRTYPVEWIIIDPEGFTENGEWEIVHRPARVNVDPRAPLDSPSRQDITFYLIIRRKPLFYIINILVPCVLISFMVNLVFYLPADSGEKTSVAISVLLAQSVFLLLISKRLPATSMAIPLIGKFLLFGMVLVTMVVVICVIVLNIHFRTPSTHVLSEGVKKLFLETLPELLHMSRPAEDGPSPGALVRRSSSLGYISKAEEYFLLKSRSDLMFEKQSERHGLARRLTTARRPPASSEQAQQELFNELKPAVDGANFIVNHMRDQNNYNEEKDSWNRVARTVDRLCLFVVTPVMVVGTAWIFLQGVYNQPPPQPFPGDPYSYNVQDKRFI
T4 sequence (P07510 23-517): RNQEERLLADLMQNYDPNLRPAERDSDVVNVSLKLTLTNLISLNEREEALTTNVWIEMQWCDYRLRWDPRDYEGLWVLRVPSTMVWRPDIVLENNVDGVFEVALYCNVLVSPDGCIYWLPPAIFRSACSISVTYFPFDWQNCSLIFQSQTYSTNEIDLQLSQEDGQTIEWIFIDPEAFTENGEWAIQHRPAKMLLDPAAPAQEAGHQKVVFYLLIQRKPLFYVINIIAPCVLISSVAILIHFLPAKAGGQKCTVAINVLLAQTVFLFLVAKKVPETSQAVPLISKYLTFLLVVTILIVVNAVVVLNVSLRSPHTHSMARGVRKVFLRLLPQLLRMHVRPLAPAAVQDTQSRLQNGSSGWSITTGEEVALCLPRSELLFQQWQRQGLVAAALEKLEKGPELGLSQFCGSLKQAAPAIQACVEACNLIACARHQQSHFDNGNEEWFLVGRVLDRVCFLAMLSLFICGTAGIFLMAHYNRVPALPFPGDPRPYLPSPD

[7] = for Pct acceptor / Pct donor / Pct membrane: PAMPA; for Pct membrane: compound found in membranes; for Pampa Peff: membrane permeation coefficient
[8] = 1 μM
[9] = molecular target: mouse P-gp (Mus musculus, UniProt P21447); conditions: efflux ratio
mouse P-gp, sequence (P21447 whole entry): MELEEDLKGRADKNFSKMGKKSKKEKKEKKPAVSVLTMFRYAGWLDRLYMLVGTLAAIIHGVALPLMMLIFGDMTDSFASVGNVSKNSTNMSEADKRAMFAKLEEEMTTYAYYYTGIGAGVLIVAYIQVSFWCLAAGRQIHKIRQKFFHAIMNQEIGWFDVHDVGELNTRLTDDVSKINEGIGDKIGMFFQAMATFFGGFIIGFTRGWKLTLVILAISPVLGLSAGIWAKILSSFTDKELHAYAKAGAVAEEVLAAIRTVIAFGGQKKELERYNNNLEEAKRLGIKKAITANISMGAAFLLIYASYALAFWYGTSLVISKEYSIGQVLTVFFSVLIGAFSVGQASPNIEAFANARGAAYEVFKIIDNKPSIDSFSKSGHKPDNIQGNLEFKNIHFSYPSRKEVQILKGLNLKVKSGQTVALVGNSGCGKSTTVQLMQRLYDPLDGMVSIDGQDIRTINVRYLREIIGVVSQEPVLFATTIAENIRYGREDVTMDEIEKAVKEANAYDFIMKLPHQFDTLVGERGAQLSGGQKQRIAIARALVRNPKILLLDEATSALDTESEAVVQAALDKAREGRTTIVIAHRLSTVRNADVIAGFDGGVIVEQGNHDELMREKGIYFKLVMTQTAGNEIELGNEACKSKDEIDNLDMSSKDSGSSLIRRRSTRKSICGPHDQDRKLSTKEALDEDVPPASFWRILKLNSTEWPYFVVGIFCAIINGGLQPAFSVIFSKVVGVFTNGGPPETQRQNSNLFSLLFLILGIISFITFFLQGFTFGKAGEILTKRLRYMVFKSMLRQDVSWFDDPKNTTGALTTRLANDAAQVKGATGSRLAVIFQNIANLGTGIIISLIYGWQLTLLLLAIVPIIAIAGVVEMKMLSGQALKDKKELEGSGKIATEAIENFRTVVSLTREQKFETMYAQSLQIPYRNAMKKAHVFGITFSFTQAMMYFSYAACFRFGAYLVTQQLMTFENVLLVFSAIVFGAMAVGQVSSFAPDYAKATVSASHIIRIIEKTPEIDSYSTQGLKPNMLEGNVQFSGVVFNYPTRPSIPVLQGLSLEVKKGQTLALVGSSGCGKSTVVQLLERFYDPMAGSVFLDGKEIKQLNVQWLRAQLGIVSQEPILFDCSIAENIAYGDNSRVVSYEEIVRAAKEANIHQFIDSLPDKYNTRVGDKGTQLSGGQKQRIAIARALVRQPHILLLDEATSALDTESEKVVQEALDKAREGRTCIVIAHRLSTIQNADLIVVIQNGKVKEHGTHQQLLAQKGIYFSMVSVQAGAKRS

[10] = molecular target: T5, mCB2R (Mus musculus, UniProt P47936); assay: biochemical; type: binding; parameters: from tissue; host or cells: spleen of male C57BL/6J mice; conditions: for pKi ± SEM mCB2R: mouse spleen membranes
T5 sequence (P47936 whole entry): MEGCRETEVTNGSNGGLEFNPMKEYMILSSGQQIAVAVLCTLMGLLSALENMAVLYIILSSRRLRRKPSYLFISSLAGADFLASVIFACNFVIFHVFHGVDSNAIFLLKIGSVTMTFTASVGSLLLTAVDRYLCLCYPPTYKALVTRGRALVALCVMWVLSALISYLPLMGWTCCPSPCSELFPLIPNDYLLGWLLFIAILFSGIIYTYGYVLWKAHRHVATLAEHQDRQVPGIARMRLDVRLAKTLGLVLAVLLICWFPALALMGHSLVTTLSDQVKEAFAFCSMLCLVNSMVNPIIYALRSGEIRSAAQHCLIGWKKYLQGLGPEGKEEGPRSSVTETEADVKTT

[11] = molecular target: T5, mCB2R; assay: biochemical; type: biochemical; parameters: from tissue; host or cells: spleen of male C57BL/6J mice; conditions: for pEC50 ± SEM cAMP mCB2R: mouse spleen

hCB2R, sequence (P34972 whole entry): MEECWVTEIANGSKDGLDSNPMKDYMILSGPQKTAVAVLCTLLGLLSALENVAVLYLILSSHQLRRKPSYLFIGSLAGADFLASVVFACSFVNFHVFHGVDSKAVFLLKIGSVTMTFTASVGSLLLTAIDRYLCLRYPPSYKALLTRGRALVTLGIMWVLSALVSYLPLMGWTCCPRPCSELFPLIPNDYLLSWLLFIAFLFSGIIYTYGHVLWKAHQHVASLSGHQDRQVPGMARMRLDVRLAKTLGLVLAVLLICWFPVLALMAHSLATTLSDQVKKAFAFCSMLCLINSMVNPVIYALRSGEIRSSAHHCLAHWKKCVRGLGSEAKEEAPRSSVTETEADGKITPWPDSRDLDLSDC
T1 sequence (P21554 whole entry): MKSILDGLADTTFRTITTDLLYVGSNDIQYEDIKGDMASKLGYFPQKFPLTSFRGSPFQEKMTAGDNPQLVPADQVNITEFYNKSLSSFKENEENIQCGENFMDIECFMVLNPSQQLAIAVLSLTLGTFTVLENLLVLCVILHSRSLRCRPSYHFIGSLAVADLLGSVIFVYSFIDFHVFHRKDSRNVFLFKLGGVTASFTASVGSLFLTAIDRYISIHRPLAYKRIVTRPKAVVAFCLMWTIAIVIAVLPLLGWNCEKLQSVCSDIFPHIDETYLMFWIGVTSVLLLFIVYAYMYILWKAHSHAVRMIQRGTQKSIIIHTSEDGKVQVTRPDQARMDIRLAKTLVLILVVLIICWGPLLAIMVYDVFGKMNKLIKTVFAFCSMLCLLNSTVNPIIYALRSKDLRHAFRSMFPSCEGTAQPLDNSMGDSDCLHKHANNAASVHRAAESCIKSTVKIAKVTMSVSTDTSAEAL

| SMILES | Emax ± SEM β-AR recruitment hCB2R [1] | pEC50 ± SEM β-AR recruitment hCB2R [1] | NAPE-PLD % inhibition at 10 µM ± SD [3] [%] | AEA reuptake Efficacy (% inhibition) HaCaT cells [4] [%] | IC50 [4] [µM] | % inhibition GR (h) [5] [%] | % inhibition N muscle-type (h) [6] [%] | Pct acceptor [7] [%] | Pct donor [7] [%] | Pct membrane [7] [%] | Pampa Peff [7] [cm/s*10-6] | CL microsomes human [8] [µL/min/mg protein] | P-gp (ER) mouse [9] | pKi ± SEM mCB2R [10] | Emax cAMP mCB2R [11] | pEC50 ± SEM cAMP mCB2R [11] | also measured |
| --- | --- | --- | --- | --- | --- | --- | --- | --- | --- | --- | --- | --- | --- | --- | --- | --- | --- |
| CN1CCCC[C@H]1Cn1cc(C(=O)c2cc([N+](=O)[O-])ccc2I)c2ccccc21 [(S)-AM1241] | 29 ± 8 | 6.54 ± 0.44 | 33 ± 7 | 90 | 4.49 | 10 | 38 | 2.2 | 34 | 64 | 1.41 | 152 | 1.4 | 6.74 ± 0.2 | 35 | 7.6 ± 0.3 | Emax ± SEM β-AR recruitment hCB1R [2]: 2 ± 1; pEC50 ± SEM β-AR recruitment hCB1R [2]: < 5; CB2R Selectivity (binding, mouse) ([10]; 10^(pKi CB2R-pKi CB1R)): 2 fold; CB2R Selectivity cAMP (mouse) ([11]; 10^(pEC50 CB2R-pEC50 CB1R)): 148 fold |
| COc1ccc(C(=O)c2c(C)n(CCN3CCOCC3)c3cc(I)ccc23)cc1 [AM630] | -124 ± 6 | 6.15 ± 0.08 | -4 ± 11 | 65 | 4.18 | 38 | 5 | 0.37 | 35.4 | 64.3 | 0.2 | 82 | 1.3 | 7.66 ± 0.23 | -65 | 7.93 ± 0.3 |  |
| CCCn1c(C)c(C(=O)c2cccc3ccccc23)c2ccccc21 [JWH015] |  |  | -4 ± 12 |  | > 5 | 36 | -12 |  |  |  |  | 41 | 1.5 | 6.63 ± 0.21 |  | 7.64 ± 0.24 | AEA reuptake % inhibition, effect at 10 µM, HaCaT cells ([4]; 10 µM (values marked *)): 64%; Emax cAMP mCB2R ([11]; normalized to 10 µM CP55940): 93% |

Source: article PMC5216056 (Nature Communications, 2017)
